In ChEMBL document CHEMBL1201862, “PubChem BioAssay data set” (2004):
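48-hour exposure; five concentrations; linearly interpolated endpoints. GI50 is the concentration that inhibits growth by half.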 Calls of active or inactive are those of the source. Rule as the data show it: active = GI50 up to about 1.1 µM and inactive = higher.

Legend:
Assay in all cases: NCI tumour cell line growth inhibition, 48 h
COLO 205 = tested on: COLO 205
MDA-MB-231 = tested on: MDA-MB-231
U-251 = tested on: U-251
LOX IMVI = tested on: LOX IMVI
786-0 = tested on: 786-0
NCI-H460 = tested on: NCI-H460
HT-29 = tested on: HT-29
RPMI-8226 = tested on: RPMI-8226
MCF7 = tested on: MCF7
M14 = tested on: M14
SF-295 = tested on: SF-295
OVCAR-4 = tested on: OVCAR-4
IGROV-1 = tested on: IGROV-1
NCI-H23 = tested on: NCI-H23
CAKI-1 = tested on: CAKI-1
NCI-H226 = tested on: NCI-H226
HCC 2998 = tested on: HCC 2998
PC-3 = tested on: PC-3
EKVX = tested on: EKVX
Hs-578T = tested on: Hs-578T
A498 = tested on: A498
CCRF-CEM = tested on: CCRF-CEM
BT-549 = tested on: BT-549
MOLT-4 = tested on: MOLT-4
KM12 = tested on: KM12
HL-60 = tested on: HL-60
HCT-116 = tested on: HCT-116
SF-539 = tested on: SF-539
OVCAR-3 = tested on: OVCAR-3
SR = tested on: SR
SNB-19 = tested on: SNB-19
SNB-75 = tested on: SNB-75
K562 = tested on: K562
Malme-3M = tested on: Malme-3M
HOP-62 = tested on: HOP-62
ACHN = tested on: ACHN
SK-MEL-28 = tested on: SK-MEL-28
RXF 393 = tested on: RXF 393
DU-145 = tested on: DU-145
UACC-62 = tested on: UACC-62
NCI-H522 = tested on: NCI-H522
MDA-N = tested on: MDA-N
SK-MEL-5 = tested on: SK-MEL-5
HCT-15 = tested on: HCT-15
UACC-257 = tested on: UACC-257
SF-268 = tested on: SF-268
SW-620 = tested on: SW-620
HOP-92 = tested on: HOP-92
OVCAR-5 = tested on: OVCAR-5
SN12C = tested on: SN12C
MDA-MB-435 = tested on: MDA-MB-435
UO-31 = tested on: UO-31
SK-OV-3 = tested on: SK-OV-3
A549 = tested on: A549
T47D = tested on: T47D
TK-10 = tested on: TK-10
NCI/ADR-RES = tested on: NCI/ADR-RES
OVCAR-8 = tested on: OVCAR-8
SK-MEL-2 = tested on: SK-MEL-2
DMS-114 = tested on: DMS-114
KM-20L2 = tested on: KM-20L2
SNB-78 = tested on: SNB-78
DMS-273 = tested on: DMS-273
M19-MEL = tested on: M19-MEL

Cc1cc(S(=O)(=O)NC2=Nc3ccc(Cl)cc3C(c3ccccc3)N2)c(S)cc1Cl (stereo unspecified)
GI50 (COLO 205): > 100 µM (inactive)
GI50 (MDA-MB-231): > 100 µM (inactive)
GI50 (U-251): 33.8 µM (inactive)
GI50 (LOX IMVI): 47.5 µM (inactive)
GI50 (786-0): > 100 µM (inactive)
GI50 (NCI-H460): 8.79 µM (inactive)
GI50 (HT-29): > 100 µM (inactive)
GI50 (RPMI-8226): 97.1 µM (inactive)
GI50 (MCF7): > 100 µM (inactive)
GI50 (M14): > 100 µM (inactive)
GI50 (SF-295): 20.9 µM (inactive)
GI50 (OVCAR-4): 43.6 µM (inactive)
GI50 (IGROV-1): > 100 µM (inactive)
GI50 (NCI-H23): > 100 µM (inactive)
GI50 (CAKI-1): > 100 µM (inactive)
GI50 (NCI-H226): 15.4 µM (inactive)
GI50 (HCC 2998): > 100 µM (inactive)
GI50 (PC-3): 1.84 µM (inactive)
GI50 (EKVX): > 100 µM (inactive)
GI50 (Hs-578T): > 100 µM (inactive)
GI50 (A498): > 100 µM (inactive)
GI50 (CCRF-CEM): 57.8 µM (inactive)
GI50 (BT-549): > 100 µM (inactive)
GI50 (MOLT-4): 62.5 µM (inactive)
GI50 (KM12): 92.9 µM (inactive)
GI50 (HL-60): > 100 µM (inactive)
GI50 (HCT-116): 36.8 µM (inactive)
GI50 (SF-539): > 100 µM (inactive)
GI50 (OVCAR-3): > 100 µM (inactive)
GI50 (SR): 14.3 µM (inactive)
GI50 (SNB-19): 28.5 µM (inactive)
GI50 (SNB-75): > 100 µM (inactive)
GI50 (K562): 85.5 µM (inactive)
GI50 (Malme-3M): > 100 µM (inactive)
GI50 (HOP-62): 81.3 µM (inactive)
GI50 (ACHN): > 100 µM (inactive)
GI50 (SK-MEL-28): > 100 µM (inactive)
GI50 (RXF 393): > 100 µM (inactive)
GI50 (DU-145): > 100 µM (inactive)
GI50 (UACC-62): > 100 µM (inactive)
GI50 (NCI-H522): > 100 µM (inactive)
GI50 (MDA-N): > 100 µM (inactive)
GI50 (SK-MEL-5): > 100 µM (inactive)
GI50 (HCT-15): 67.1 µM
GI50 (UACC-257): > 100 µM (inactive)
GI50 (SF-268): 9.12 µM (inactive)
GI50 (SW-620): > 100 µM (inactive)
GI50 (HOP-92): > 100 µM (inactive)
GI50 (OVCAR-5): > 100 µM (inactive)
GI50 (SN12C): > 100 µM (inactive)
GI50 (MDA-MB-435): > 100 µM (inactive)
GI50 (UO-31): 46 µM (inactive)
GI50 (SK-OV-3): > 100 µM (inactive)
GI50 (A549): 17.8 µM (inactive)
GI50 (T47D): 9.02 µM (inactive)
GI50 (TK-10): > 100 µM (inactive)
GI50 (NCI/ADR-RES): > 100 µM (inactive)
GI50 (OVCAR-8): > 100 µM (inactive)

COc1ccc(/C=N/C23CC4CC(CC(C4)C2)C3)cc1
GI50 (COLO 205): > 10 µM (inactive)
GI50 (U-251): > 100 µM (inactive)
GI50 (LOX IMVI): > 100 µM (inactive)
GI50 (SK-MEL-2): > 100 µM (inactive)
GI50 (786-0): > 100 µM (inactive)
GI50 (DMS-114): > 100 µM (inactive)
GI50 (NCI-H460): > 100 µM (inactive)
GI50 (HT-29): > 100 µM (inactive)
GI50 (RPMI-8226): > 100 µM (inactive)
GI50 (M14): > 100 µM (inactive)
GI50 (SF-295): > 100 µM (inactive)
GI50 (OVCAR-4): > 100 µM (inactive)
GI50 (IGROV-1): > 100 µM (inactive)
GI50 (NCI-H23): > 100 µM (inactive)
GI50 (CAKI-1): > 100 µM (inactive)
GI50 (NCI-H226): > 100 µM (inactive)
GI50 (HCC 2998): > 100 µM (inactive)
GI50 (EKVX): > 100 µM (inactive)
GI50 (A498): > 100 µM (inactive)
GI50 (CCRF-CEM): > 100 µM (inactive)
GI50 (MOLT-4): > 100 µM (inactive)
GI50 (KM12): > 100 µM (inactive)
GI50 (HL-60): > 100 µM (inactive)
GI50 (HCT-116): > 100 µM (inactive)
GI50 (SF-539): > 100 µM (inactive)
GI50 (OVCAR-3): > 100 µM (inactive)
GI50 (SR): > 100 µM (inactive)
GI50 (SNB-19): > 100 µM (inactive)
GI50 (SNB-75): > 100 µM (inactive)
GI50 (K562): > 100 µM (inactive)
GI50 (Malme-3M): > 100 µM (inactive)
GI50 (HOP-62): > 100 µM (inactive)
GI50 (ACHN): > 100 µM (inactive)
GI50 (SK-MEL-28): > 100 µM (inactive)
GI50 (KM-20L2): > 100 µM (inactive)
GI50 (RXF 393): > 100 µM (inactive)
GI50 (UACC-62): > 100 µM (inactive)
GI50 (SNB-78): > 100 µM (inactive)
GI50 (NCI-H522): > 100 µM (inactive)
GI50 (DMS-273): > 10 µM (inactive)
GI50 (SK-MEL-5): > 100 µM (inactive)
GI50 (M19-MEL): > 10 µM (inactive)
GI50 (HCT-15): > 100 µM
GI50 (UACC-257): > 100 µM (inactive)
GI50 (SF-268): > 100 µM (inactive)
GI50 (SW-620): > 100 µM (inactive)
GI50 (OVCAR-5): > 100 µM (inactive)
GI50 (SN12C): > 100 µM (inactive)
GI50 (UO-31): > 100 µM (inactive)
GI50 (SK-OV-3): > 100 µM (inactive)
GI50 (A549): > 100 µM (inactive)
GI50 (TK-10): > 100 µM (inactive)
GI50 (OVCAR-8): > 100 µM (inactive)
